Data published in PubChem BioAssay (NCI).
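Each compound was tested at five concentrations against cells in 96-well plates for 48 hours. Here, GI50 denotes the concentration required for 50% inhibition of growth. The concentration for full growth arrest is given as TGI.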

Legend:
Assay in all cases: NCI-60 cell line screen, 48 h
NCI-H460 lung = system: NCI-H460 lung
MDA-MB-435 = system: MDA-MB-435
UACC-62 melanoma = system: UACC-62 melanoma
DU-145 prostate = system: DU-145 prostate
SK-MEL-28 melanoma = system: SK-MEL-28 melanoma
SK-MEL-5 melanoma = system: SK-MEL-5 melanoma
UACC-257 melanoma = system: UACC-257 melanoma
SF-268 CNS = system: SF-268 CNS
OVCAR-8 ovarian = system: OVCAR-8 ovarian
OVCAR-4 ovarian = system: OVCAR-4 ovarian
IGROV1 ovarian = system: IGROV1 ovarian
MDA-MB-231 breast = system: MDA-MB-231 breast
SK-MEL-2 melanoma = system: SK-MEL-2 melanoma
HOP-62 NSCLC = system: HOP-62 NSCLC
KM12 colon = system: KM12 colon
ACHN renal = system: ACHN renal
MDA-MB-468 breast = system: MDA-MB-468 breast
HS 578T breast = system: HS 578T breast
NCI-H226 lung = system: NCI-H226 lung
NCI/ADR-RES ovarian = system: NCI/ADR-RES ovarian
HL-60(TB) leukemia = system: HL-60(TB) leukemia
K-562 leukemia = system: K-562 leukemia
786-0 renal = system: 786-0 renal
TK-10 renal = system: TK-10 renal
HT29 colon = system: HT29 colon
RPMI-8226 leukemia = system: RPMI-8226 leukemia
MALME-3M melanoma = system: MALME-3M melanoma
SR leukemia = system: SR leukemia
NCI-H23 lung = system: NCI-H23 lung
SK-OV-3 ovarian = system: SK-OV-3 ovarian
SF-539 CNS = system: SF-539 CNS
HCC-2998 colon = system: HCC-2998 colon
SN12C renal = system: SN12C renal
UO-31 renal = system: UO-31 renal
SNB-19 CNS = system: SNB-19 CNS
M14 melanoma = system: M14 melanoma
A498 renal = system: A498 renal
BT-549 breast = system: BT-549 breast
HCT-15 colon = system: HCT-15 colon
COLO 205 colon = system: COLO 205 colon
PC-3 prostate = system: PC-3 prostate
LOX IMVI melanoma = system: LOX IMVI melanoma
HCT-116 colon = system: HCT-116 colon
EKVX NSCLC = system: EKVX NSCLC
CAKI-1 renal = system: CAKI-1 renal
NCI-H522 lung = system: NCI-H522 lung
U251 CNS = system: U251 CNS
OVCAR-5 ovarian = system: OVCAR-5 ovarian
A549 NSCLC = system: A549 NSCLC
MOLT-4 leukemia = system: MOLT-4 leukemia
CCRF-CEM leukemia = system: CCRF-CEM leukemia
SF-295 CNS = system: SF-295 CNS
MCF7 breast = system: MCF7 breast
OVCAR-3 ovarian = system: OVCAR-3 ovarian
RXF 393 renal = system: RXF 393 renal
SW-620 colon = system: SW-620 colon

C=C1CC[C@H](C(=C)C)[C@H]2C=C(C)C(=O)C3=C(C(=O)[C@@](C)(O)C3)[C@H]12
GI50 (NCI-H460 lung): 1480 nM
TGI (NCI-H460 lung): 4040 nM
GI50 (MDA-MB-435): 1550 nM
TGI (MDA-MB-435): 3140 nM
GI50 (UACC-62 melanoma): 1230 nM
TGI (UACC-62 melanoma): 2480 nM
GI50 (DU-145 prostate): 1230 nM
TGI (DU-145 prostate): 2480 nM
GI50 (SK-MEL-28 melanoma): 1630 nM
TGI (SK-MEL-28 melanoma): 2990 nM
GI50 (SK-MEL-5 melanoma): 1480 nM
TGI (SK-MEL-5 melanoma): 2830 nM
GI50 (UACC-257 melanoma): 1350 nM
TGI (UACC-257 melanoma): 2760 nM
GI50 (SF-268 CNS): 1580 nM
TGI (SF-268 CNS): 3360 nM
GI50 (OVCAR-8 ovarian): 1460 nM
TGI (OVCAR-8 ovarian): 3690 nM
GI50 (OVCAR-4 ovarian): 1550 nM
TGI (OVCAR-4 ovarian): 2990 nM
GI50 (IGROV1 ovarian): 1280 nM
TGI (IGROV1 ovarian): 2880 nM
GI50 (MDA-MB-231 breast): 1390 nM
TGI (MDA-MB-231 breast): 2740 nM
GI50 (SK-MEL-2 melanoma): 1460 nM
TGI (SK-MEL-2 melanoma): 2880 nM
GI50 (HOP-62 NSCLC): 1760 nM
TGI (HOP-62 NSCLC): 3270 nM
GI50 (KM12 colon): 1460 nM
TGI (KM12 colon): 3270 nM
GI50 (ACHN renal): 1480 nM
TGI (ACHN renal): 2800 nM
GI50 (MDA-MB-468 breast): 528 nM
TGI (MDA-MB-468 breast): 1940 nM
GI50 (HS 578T breast): 3030 nM
TGI (HS 578T breast): 17700 nM
GI50 (NCI-H226 lung): 1470 nM
TGI (NCI-H226 lung): 3060 nM
GI50 (NCI/ADR-RES ovarian): 1950 nM
TGI (NCI/ADR-RES ovarian): 5520 nM
GI50 (HL-60(TB) leukemia): 853 nM
TGI (HL-60(TB) leukemia): 3760 nM
GI50 (K-562 leukemia): 611 nM
TGI (K-562 leukemia): 13100 nM
GI50 (786-0 renal): 1750 nM
TGI (786-0 renal): 3170 nM
GI50 (TK-10 renal): 1790 nM
TGI (TK-10 renal): 3220 nM
GI50 (HT29 colon): 1070 nM
TGI (HT29 colon): 3230 nM
GI50 (RPMI-8226 leukemia): 1160 nM
TGI (RPMI-8226 leukemia): 3420 nM
GI50 (MALME-3M melanoma): 1470 nM
TGI (MALME-3M melanoma): 2880 nM
GI50 (SR leukemia): 324 nM
TGI (SR leukemia): 2060 nM
GI50 (NCI-H23 lung): 1630 nM
TGI (NCI-H23 lung): 3260 nM
GI50 (SK-OV-3 ovarian): 1870 nM
TGI (SK-OV-3 ovarian): 3830 nM
GI50 (SF-539 CNS): 1410 nM
TGI (SF-539 CNS): 2710 nM
GI50 (HCC-2998 colon): 1280 nM
TGI (HCC-2998 colon): 2540 nM
GI50 (SN12C renal): 1190 nM
TGI (SN12C renal): 2550 nM
GI50 (UO-31 renal): 1120 nM
TGI (UO-31 renal): 2320 nM
GI50 (SNB-19 CNS): 1650 nM
TGI (SNB-19 CNS): 3010 nM
GI50 (M14 melanoma): 1340 nM
TGI (M14 melanoma): 2820 nM
GI50 (A498 renal): 3560 nM
TGI (A498 renal): 8500 nM
GI50 (BT-549 breast): 1450 nM
TGI (BT-549 breast): 2770 nM
GI50 (HCT-15 colon): 349 nM
TGI (HCT-15 colon): 1400 nM
GI50 (COLO 205 colon): 1740 nM
TGI (COLO 205 colon): 3250 nM
GI50 (PC-3 prostate): 1670 nM
TGI (PC-3 prostate): 3330 nM
GI50 (LOX IMVI melanoma): 369 nM
TGI (LOX IMVI melanoma): 1500 nM
GI50 (HCT-116 colon): 801 nM
TGI (HCT-116 colon): 2070 nM
GI50 (EKVX NSCLC): 1700 nM
TGI (EKVX NSCLC): 3300 nM
GI50 (CAKI-1 renal): 1570 nM
TGI (CAKI-1 renal): 2980 nM
GI50 (NCI-H522 lung): 1180 nM
TGI (NCI-H522 lung): 2530 nM
GI50 (U251 CNS): 1090 nM
TGI (U251 CNS): 2380 nM
GI50 (OVCAR-5 ovarian): 1520 nM
TGI (OVCAR-5 ovarian): 2980 nM
GI50 (A549 NSCLC): 1270 nM
TGI (A549 NSCLC): 3000 nM
GI50 (MOLT-4 leukemia): 1210 nM
TGI (MOLT-4 leukemia): 3750 nM
GI50 (CCRF-CEM leukemia): 2260 nM
TGI (CCRF-CEM leukemia): 5250 nM
GI50 (SF-295 CNS): 1480 nM
TGI (SF-295 CNS): 2840 nM
GI50 (MCF7 breast): 639 nM
TGI (MCF7 breast): 2020 nM
GI50 (OVCAR-3 ovarian): 1200 nM
TGI (OVCAR-3 ovarian): 2480 nM
GI50 (RXF 393 renal): 1510 nM
TGI (RXF 393 renal): 2990 nM
GI50 (SW-620 colon): 1380 nM
TGI (SW-620 colon): 3110 nM
